Reference: ChEMBL document CHEMBL1134149, “Discovery, total synthesis, HRV 3C-protease inhibitory activity, and structure-activity relationships of 2-methoxystypandrone and its analogues” (Bioorg Med Chem Lett, 2001)

Tests used:
Papain = target: T1, Papain (Carica papaya, UniProt P00784); test: Inhibitory activity against papain using HPLC assay
T1 sequence (P00784 whole entry): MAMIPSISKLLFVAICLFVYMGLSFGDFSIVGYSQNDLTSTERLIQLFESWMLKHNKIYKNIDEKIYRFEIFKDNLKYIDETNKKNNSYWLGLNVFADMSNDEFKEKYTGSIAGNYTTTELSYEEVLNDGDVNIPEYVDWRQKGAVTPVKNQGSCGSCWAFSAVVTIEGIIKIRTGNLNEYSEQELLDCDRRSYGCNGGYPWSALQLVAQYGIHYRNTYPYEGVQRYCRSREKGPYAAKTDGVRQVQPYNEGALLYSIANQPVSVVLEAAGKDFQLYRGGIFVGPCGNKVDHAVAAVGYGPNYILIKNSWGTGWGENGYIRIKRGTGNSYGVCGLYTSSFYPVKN

Papain (Carica papaya) = target: T2, Papain (Carica papaya) (UniProt P00784); test: Percent inhibition against papain; conditions: concentration not given here
T2 sequence (whole entry): T1 sequence (P00784 whole entry)

Question: How did the IC50 (Papain) turn out when `COC1=CC(=O)c2c(cc(C)c(C(C)=O)c2OC(C)=O)C1=O` was run?
Answer: The IC50 was 33 µM.

Question: How did the IC50 (Papain) turn out when `COC1=CC(=O)c2c(cc(C)c(C(C)=O)c2O)C1=O` was run?
Answer: Its IC50 is 23 µM.

Question: What does the source list for `O=C1C=CC(=O)c2c1ccc1c2ccc2ccccc21`?
Answer: inhibition (Papain (Carica papaya)): 45%; IC50 (Papain): 18 µM

Question: Which inhibition (Papain (Carica papaya)) does the source give for `O=C1C=Cc2ccccc2C1=O` [1,2-NAPHTHOQUINONE] here?
Answer: Its inhibition is 67%.

Question: What about the IC50 (Papain) of the same compound?
Answer: The IC50 was 120 µM.

Question: What does the source list for `O=C1C(=O)c2ccccc2-c2ccccc21` [9,10-PHENANTHRENEQUINONE]?
Answer: inhibition (Papain (Carica papaya)): 24%; IC50 (Papain): 91 µM

Question: How did the IC50 (Papain) turn out when `O=C1C=CC(=O)c2ccccc21` [NAPHTHOQUINONE] was run?
Answer: The IC50 was 29 µM.
